What is called LD50 is the dose expected to kill half of the subjects tested.

Series [1] relates to M. smegmatis ATCC 700084 (MS). Description: in vitro antimycobacterial MIC, broth dilution micromethod in Middlebrook 7H9. The series is classed as cell-based, Mycobacterium smegmatis. Particulars: Mycolicibacterium smegmatis, ATCC700084, 72 h; 3-day cultivation, 37 °C; read-out: MIC MS 3-d. For orientation: In broth dilution the organism is exposed to a series of concentrations in liquid medium.

Series [2] concerns M. kansasii CNCTC My 235/80 (identical with ATCC 12478; MK 235/80). The series can be described thus: in vitro antimycobacterial MIC, dilution micromethod in Šula's semisynthetic medium. The series is classed as cell-based, Mycobacterium kansasii. As to conditions: Mycobacterium kansasii.
Series [3] relates to M. marinum CAMP 5644 (MM). Description: in vitro antimycobacterial MIC, broth dilution micromethod in Middlebrook 7H9. It is filed as cell-based, Mycobacterium marinum. Particulars: Mycobacterium marinum, 504 h; 21-day cultivation, 28 °C; read-out: MIC MM 21-d.
Series [4] relates to Mycobacterium tuberculosis CNCTC My 331/88 (identical with H37Rv and ATCC 2794; MTv H37Rv). The series can be described thus: in vitro antimycobacterial MIC, dilution micromethod in Šula's semisynthetic medium. The series is classed as cell-based. Particulars: Mycobacterium tuberculosis.
Series [5] concerns M. tuberculosis H37Ra ATCC 25177 (MTa H37Ra). Description: in vitro antimycobacterial MIC, 96-well Middlebrook broth, alamarBlue. Particulars: Mycobacterium tuberculosis, 168 h, 7-day cultivation; read-out: MIC MTa H37Ra 7-d. It is filed as cell-based, Mycobacterium tuberculosis. As to the method:
In vitro susceptibitity of given mycobacteria to reference drugs isoniazid (INH), ethambutol (EMB), ofloxacin (OFLX) or ciprofloxacin (CPX) was tested as well (Table 6 and Table 7).
A value of a minimum inhibitory concentration (MIC) was the lowest concentration of a tested compound, (i) which inhibited growth of MTv H37Rv, MK 235/80, MK 6509/96 and MA 330/80, respectively; (ii) at which no visible growth of MTa H37Ra, MS, MK DSM as well as MM was observed.
The molecules 1a–p were also in vitro screened against an avirulent M. tuberculosis H37Ra ATCC 25177 (MTa H37Ra), M. kansasii DSM 44162 (MK DSM), M. smegmatis ATCC 700084 (MS) and M. marinum CAMP 5644 (MM), respectively, in the Department of Infectious Diseases and Microbiology (Faculty of Veterinary Medicine, University of Veterinary and Pharmaceutical Sciences in Brno, Czech Republic).
Determination of a minimum inhibitory concentration (MIC) against MTa H37Ra. The mycobacterium was grown on Middlebrook broth (MB; MiddleBrook Pharmaceuticals, Inc., Westlake, TX, USA), supplemented with Oleic-Albumin-Dextrose-Catalase (OADC) supplement (Difco, Lawrence, KS, USA) and salicylate-derived mycobactin J (2 μg/mL; Allied Monitor Inc., Fayette, MO, USA), an iron-binding siderophore.
At log phase growth, a culture sample (10 mL) was centrifuged at 15,000 rpm/20 min using a bench top centrifuge MPW-65R (MPW Med Instruments, Warsaw, Poland). Following removal of the supernatant, a pellet was washed in fresh liquid Middlebrook 7H9GC broth (MiddleBrook Pharmaceuticals, Inc.) and re-suspended in a fresh OADC-supplemented MB (10 mL).
Turbidity was adjusted to match the McFarland standard No. 1 [87] containing approximately 3 × 10^8 Colony Forming Units (CFU) with MB broth. Further 1:20 dilution of the culture was performed in MB broth.
Susceptibility of MTa H37Ra was investigated in a 96-well plate format. In the experiments, sterile deionized water (300 µL) was added to all outer-perimeter wells of the plates to minimize evaporation of the medium in test wells during incubation. Each evaluated compound (100 µL) was incubated with MTa H37Ra (100 µL). Dilutions of each compound were prepared in triplicate and final concentrations varied from 1000 μg/mL to 8 μg/mL. All tested molecules were dissolved in DMSO (Sigma-Aldrich, Irvine, UK), and subsequent dilutions were made in supplemented MB broth. The plates were sealed with parafilm and incubated at 37 °C for 7 days.
Following incubation, 10% addition a water-soluble dye, the alamarBlue reagent (AbD Serotec, Kidlington, UK) was mixed into each well. This resaurin-based reagent served as an oxidation-reduction indicator of metabolic function and cellular health in cell viability bioassays.
Absorbance readings at 570 nm and 600 nm were taken, initially for background subtraction and after 24h re-incubation. The subtraction is necessary for strongly colored compounds, where the color may interfere with the interpretation of any color change. For non-interfering compounds, a blue color in a well was interpreted as absence of growth and pink color was scored as growth.
The minimum inhibitory concentration (MIC) was defined as the lowest concentration of a compound, at which no visible bacterial growth was observed. In other words, the MIC was the lowest concentration that prevented visual color change from blue to pink.
On the technique in general: Resazurin is reduced to fluorescent resorufin, in cell work by metabolically active cells.

Series [6] relates to M. avium CNCTC My 330/80 (identical with ATCC 25291; MA 330/80). The series can be described thus: in vitro antimycobacterial MIC, dilution micromethod in Šula's semisynthetic medium. It is filed as cell-based, Mycobacterium avium. As to conditions: Mycobacterium avium.
Series [7] deals with white mice. Particulars: subcutaneous application; cited from earlier work.
Series [8] relates to guinea pig. More on the design: method as in PMID 8402965. Particulars: intradermal, 0.02 M procaine as standard; cited from earlier work.
Series [9] relates to rabbit cornea. The arrangement: method as in PMID 8402965. Particulars: 0.01 M cocaine as standard; cited from earlier work.
In series [10] the test system is M. kansasii DSM 44162 (MK DSM). The series can be described thus: in vitro antimycobacterial MIC, broth dilution micromethod in Middlebrook 7H9. The series is classed as cell-based. Particulars: Mycobacterium kansasii, DSM 44162 / DSM 7, 168 h; 7-day cultivation, 37 °C; read-out: MIC MK DSM 7-d.
Setting [11] is: ATCC12478, 168 h, 7-day cultivation, read-out: MIC MK 235/80 7-d.
[12] abbreviates: ATCC12478, 336 h, 14-day cultivation, read-out: MIC MK 235/80 14-d.
The mark [13] stands for this setting: ATCC12478, 504 h, 21-day cultivation, read-out: MIC MK 235/80 21-d.
[14] abbreviates: 336 h, 14-day cultivation, read-out: MIC MTv H37Rv 14-d.
Setting [15] is: 504 h, 21-day cultivation, read-out: MIC MTv H37Rv 21-d.
The mark [16] stands for this setting: ATCC25291, 336 h, 14-day cultivation, read-out: MIC MA 330/80 14-d.
Setting [17] is: ATCC25291, 504 h, 21-day cultivation, read-out: MIC MA 330/80 21-d.

SMILES strings stand for the structures. Values after ≈ are worked out from the molar mass of the structure shown. Like-named read-outs stand apart in the source and are kept apart here. Bounds are passed on as bounds.

Turning to `NNC(=O)c1ccncc1` [INH, isoniazid, reference compound], the MIC in series [1] is 117 µM (≈ 16 µg/mL); in series [2] (setting [11]) it was greater than 250 µM; in [2] (setting [12]), greater than 250 µM; in series [2] (setting [13]) it was greater than 250 µM; in series [3] it was 467 µM (≈ 64 µg/mL); in series [4] (setting [14]), 0.5 µM (≈ 0.0686 µg/mL). For the same compound, the MIC in series [4] (setting [15]) is 1 µM (≈ 0.137 µg/mL); in series [5], 36.5 µM (≈ 5.01 µg/mL); in series [6] (setting [16]), greater than 250 µM; in series [6] (setting [17]), greater than 250 µM.

With `COC(=O)[C@H]1[C@@H](OC(=O)c2ccccc2)C[C@@H]2CC[C@H]1N2C` [cocaine], the LD50 in series [7] is listed as 125 mg/kg. Moreover, the “Ui, index of relative infiltration local anesthetic efficiency” value in [8] was 3.6. Also, the “Us, index of relative surface local anesthetic efficiency” value in series [9] is given as 1.0.

Take `CC1COc2c(N3CCN(C)CC3)c(F)cc3c(=O)c(C(=O)O)cn1c23` (stereo not shown) [OFLX, ofloxacin, reference compound]: the MIC in series [2] (setting [11]) is 0.5 µM (≈ 0.181 µg/mL); in series [2] (setting [12]), 1 µM (≈ 0.361 µg/mL); in series [2] (setting [13]) it was 1 µM (≈ 0.361 µg/mL); in [4] (setting [14]), 1 µM (≈ 0.361 µg/mL); in series [4] (setting [15]), 2 µM (≈ 0.723 µg/mL); in [6] (setting [16]), 32 µM (≈ 11.6 µg/mL). In [6] (setting [17]), the MIC stood at 62.5 µM (≈ 22.6 µg/mL).

As to `CC[C@@H](CO)NCCN[C@@H](CC)CO` [EMB, ethambutol, reference compound], the MIC in series [4] (setting [14]) was found to be 1 µM (≈ 0.204 µg/mL); in series [4] (setting [15]) it was 2 µM (≈ 0.409 µg/mL); in series [6] (setting [16]) it was 16 µM (≈ 3.27 µg/mL); in series [6] (setting [17]) it was 16 µM (≈ 3.27 µg/mL); in [6] (ATCC25291, cultivation time not given, read-out: MIC MA 330/80), 16 µM (≈ 3.27 µg/mL).

`CCN(CC)CCOC(=O)c1ccc(N)cc1` [procaine]: the LD50 in [7] was 600 mg/kg. Further, the “Ui, index of relative infiltration local anesthetic efficiency” value in series [8] is 1.0. In series [9], the “Us, index of relative surface local anesthetic efficiency” value is on record as 0.1.

In the case of `O=C(O)c1cn(C2CC2)c2cc(N3CCNCC3)c(F)cc2c1=O` [CPX, ciprofloxacin, reference compound], the MIC turned out to be 0.4 µM (≈ 0.133 µg/mL) in series [1], 0.8 µM (≈ 0.265 µg/mL) in [3] and 3 µM (≈ 0.994 µg/mL) in [10].

The values are drawn from article PMC6222509, “Dibasic Derivatives of Phenylcarbamic Acid against Mycobacterial Strains: Old Drugs and New Tricks?” (Molecules : A Journal of Synthetic Chemistry and Natural …, 2018).
